ChEMBL document CHEMBL1201862, “PubChem BioAssay data set” (2004)
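Assay format: 96-well plates, 48-hour exposure. Here, GI50 denotes the concentration required for 50% inhibition of growth.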 The source made the active and inactive calls. Rule as the data show it: active = GI50 up to about 1.1 µM and inactive = higher.

Assays:
Assay in all cases: NCI tumour cell line growth inhibition, 48 h
BT-549 = system: BT-549
CAKI-1 = system: CAKI-1
EKVX = system: EKVX
HCT-116 = system: HCT-116
HCT-15 = system: HCT-15
HT-29 = system: HT-29
Hs-578T = system: Hs-578T
IGROV-1 = system: IGROV-1
MDA-N = system: MDA-N
NCI-H226 = system: NCI-H226
NCI/ADR-RES = system: NCI/ADR-RES
OVCAR-3 = system: OVCAR-3
OVCAR-5 = system: OVCAR-5
RXF 393 = system: RXF 393
SF-539 = system: SF-539
SK-MEL-2 = system: SK-MEL-2
SN12C = system: SN12C
SNB-75 = system: SNB-75
T47D = system: T47D
UACC-62 = system: UACC-62

| Structure (SMILES) | GI50 (BT-549) | GI50 (CAKI-1) | GI50 (EKVX) | GI50 (HCT-116) | GI50 (HCT-15) | GI50 (HT-29) | GI50 (Hs-578T) | GI50 (IGROV-1) | GI50 (MDA-N) | GI50 (NCI-H226) | GI50 (NCI/ADR-RES) | GI50 (OVCAR-3) | GI50 (OVCAR-5) | GI50 (RXF 393) | GI50 (SF-539) | GI50 (SK-MEL-2) | GI50 (SN12C) | GI50 (SNB-75) | GI50 (T47D) | GI50 (UACC-62) |
| --- | --- | --- | --- | --- | --- | --- | --- | --- | --- | --- | --- | --- | --- | --- | --- | --- | --- | --- | --- | --- |
| C=C(CCCCCCCCC)CC(=O)SCCNC(=O)CCNC(=O)C(O)C(C)(C)COP(=O)(O)OP(=O)(O)OCC1OC(n2cnc3c(N)ncnc32)C(O)C1OP(=O)(O)O (stereo not given) | > 60.8 µM (inactive) | > 100 µM (inactive) | 51.2 µM (inactive) | 45.5 µM (inactive) | 50.1 µM | 68.2 µM (inactive) | > 64.4 µM (inactive) | 98.2 µM (inactive) | 32.1 µM (inactive) | > 100 µM (inactive) | > 100 µM (inactive) | 77.8 µM (inactive) | > 100 µM (inactive) | > 71.1 µM (inactive) | 51.3 µM (inactive) | 60.8 µM (inactive) | > 84.3 µM (inactive) | 30 µM (inactive) | > 76.9 µM (inactive) | 21.1 µM (inactive) |
| CN(C)Cc1cc(/N=N/c2ccccc2)ccc1O | 30.8 µM (inactive) | 62.4 µM (inactive) | 40 µM (inactive) | > 100 µM (inactive) | 43.1 µM | 32.4 µM (inactive) | 33 µM (inactive) | 32.5 µM (inactive) | 44 µM (inactive) | 95.9 µM (inactive) | 24.8 µM (inactive) | 68.2 µM (inactive) | 42.7 µM (inactive) | 3.94 µM (inactive) | 67.3 µM (inactive) | 38.9 µM (inactive) | > 100 µM (inactive) | 10 µM (inactive) | 44.1 µM (inactive) | 24.5 µM (inactive) |
| CO[P@]1(=O)O[C@@H](c2ccccc2)[C@H](O)[C@]1(O)c1ccccc1 | > 100 µM (inactive) | > 100 µM (inactive) | > 100 µM (inactive) | > 100 µM (inactive) | > 100 µM | > 100 µM (inactive) | > 100 µM (inactive) | > 100 µM (inactive) | > 100 µM (inactive) | > 100 µM (inactive) | > 100 µM (inactive) | > 100 µM (inactive) | > 100 µM (inactive) | > 100 µM (inactive) | > 100 µM (inactive) | > 100 µM (inactive) | > 100 µM (inactive) | > 100 µM (inactive) | > 100 µM (inactive) | > 100 µM (inactive) |
| NCCCN1CCN(CC(=O)O)CCN(CCCN)CCN(CC(=O)O)CC1 | > 100 µM (inactive) | > 100 µM (inactive) | > 77.6 µM (inactive) | > 100 µM (inactive) | 43.8 µM | > 19.9 µM (inactive) | > 100 µM (inactive) | 43.9 µM (inactive) | > 35.9 µM (inactive) | > 100 µM (inactive) | > 100 µM (inactive) | > 31.8 µM (inactive) | > 38.9 µM (inactive) | > 47.9 µM (inactive) | 68.1 µM (inactive) | > 33.3 µM (inactive) | > 100 µM (inactive) | > 100 µM (inactive) | > 100 µM (inactive) | > 56.9 µM (inactive) |
